Measured values taken from patent US20260117192A1, “METHODS OF PRODUCING A TUMOR AVATAR” (ARIEL SCIENTIFIC INNOVATIONS LTD., priority 2023, published 2026).

Legend:
gastric cancer organoids = assay: Drug cytotoxicity, CellTiter-Glo cell viability and bright field images, organoids; type: cell-based, human; conditions: for cell death: targeted drugs at concentrations found in peripheral blood (crizotinib 1 μM, osimertinib 0.8 μM, afatinib 0.150 μM); for effect on viability: targeted drugs, 72 hours (dasatinib 0.180 μM, gefitinib 3 μM, imatinib 4 μM, capmatinib 8 μM)
Protocol: (§1) Organoids and stroma cells isolation and culture: Human gastric cancer along with surrounding normal tissue were obtained from a consenting patient undergoing surgery at Ichilov Hospital, with approval from the Institutional Review Board. The samples were transported in cold hypothermosol medium and processed within 24 hours post-surgery. Upon acquisition, the tumor tissue was divided into three equal parts for various analyses. One third was snap-frozen for subsequent DNA isolation, another third was fixed in 4% paraformaldehyde for histological examination, and the remaining portion was prepared for cell culture. The tissue underwent digestion using Collagenase I (1 mg/ml), Liberase, and DNAse (10 ug/ml), followed by separation into organoids and stroma cell cultures. Organoids were cultured as previously described hereinbelow, with medium replacement twice weekly and passaging via mechanical and enzymatic dissociation using TrypLE enzyme. Stroma cells were cultured in mesenchymal stem cell medium (MSCM) on pre-coated Matrigel (20%) and fibronectin (2 μg/cm2) 4-well dish plates. Upon reaching 80% confluency the cells were subculturing using accutase to 6 well plate and then to 25 cm flask. From passage 3 onwards, cells were sub-cultured in 25 cm flask and then in 75 cm flasks using MSCM, endothelial cell medium (ECM), or fibroblast medium (FM-2) for subsequent passages. Bright field images were obtained using Operetta High Content Screening System or Leica microscope.
(§2) Cell viability assay: To assess co-culture growth rates and the cytotoxic effects of various drugs, a luminescent cell viability assay was conducted using the CellTiter-Glo kit from Promega following the manufacturer's guidelines. For the drug cytotoxicity assay, co-cultures or organoids were seeded in 384-well plates and allowed to organize for 48 hours. […] The chosen drug concentrations were based on their higher plasma concentration values. Following treatment, each well containing co-cultures or organoids was lysed using CellTiter-Glo reagents, thoroughly mixed, and incubated for 30 minutes, after which luminescence was measured.

stroma cell monocultures = assay: Drug cytotoxicity, CellTiter-Glo cell viability, stroma cell monocultures; type: cell-based, human; conditions: stroma cells monocultures, targeted drugs, 72 hours (dasatinib 0.180 μM, imatinib 4 μM, capmatinib 8 μM)
Protocol: as §1, with “Stroma cells were cultured in mesenchymal stem cell medium (MSCM) on pre-coated Matrigel (20%) and fibronectin (2 μg/cm2) 4-well dish plates. Upon reaching 80% confluency the cells were subculturing using accutase to 6 well plate and then to 25 cm flask. From passage 3 onwards, cells were sub-cultured in 25 cm flask and then in 75 cm flasks using MSCM, endothelial cell medium (ECM), or fibroblast medium (FM-2) for subsequent passages. Bright field images were obtained using Operetta High Content Screening System or Leica microscope.” left out
(§3) Cell viability assay: To assess co-culture growth rates and the cytotoxic effects of various drugs, a luminescent cell viability assay was conducted using the CellTiter-Glo kit from Promega following the manufacturer's guidelines. […] Following treatment, each well containing co-cultures or organoids was lysed using CellTiter-Glo reagents, thoroughly mixed, and incubated for 30 minutes, after which luminescence was measured.

[1] = system: ECM:FM2:ORG co-cultures (TECs:TASCs:Org); assay: Drug cytotoxicity, CellTiter-Glo cell viability and bright field images, organoid-stroma cell co-cultures; type: cell-based, human; conditions: for effect on viability: co-culture, targeted drugs, 72 hours (afatinib 0.150 μM, osimertinib 0.8 μM, dasatinib 0.180 μM, gefitinib 3 μM, imatinib 4 μM, capmatinib 8 μM)
Protocol: Organoid-stroma cells co-culture: Initially, organoids were mechanically dissociated into smaller fragments through pipetting, followed by enzymatic digestion into single cells using dispase II at 37° C. for 20 minutes. Concurrently, stroma cells cultured in FM-2, ECM, and MSCM, as well as Huvec cells cultured in ECM, were harvested at 80% confluency in the flask and dissociated using accutase. In certain experiments, after cells dissociation, each cell population was stained with a vital dye before their co-culture. Cells cultured in ECM and Huvec cell lines were stained blue using the CellTrace Violet Dye Proliferation Kit. […] Imaging was performed at 10× magnification using an Olympus Confocal Microscope. Subsequently, dissociated cells were mixed in 35 ul of co-culture medium, at ratios of 1:1:1, 1:4:1, 4:1:1 and 1:1:4 of Huvec or cells cultured in ECM, cells cultured in FM2 and organoids respectively. Co-cultures composed of ECM:organoids (ORG), FM2:ORG, and Huvec:ORG were also created at 1:1, 1:4, and 4:1 ratios, respectively. Each mix, containing 4000 cells, was then co-cultured in 384 wells low repellent plates, with DMEM/F12 medium supplemented with 10 mM HEPES, abam, 2 mM glutamax, non-essential amino acids, sodium pyruvate, 500 ng ml-1 R-spondin, 100 ng ml-1 noggin, 100 ng ml-1 Wnt3A, 10 nM gastrin, Prostaglandin E2, 100 ng ml-1 IGF1, 10 ng·ml-1 FGF2, 10 ng·ml-1 FGF10, 50 ng·ml-1 EGF, B27, 0.5 μM A 83-01, 4 mM nicotinamide, 10 μM Y-27632, 1 μg ml-1 hydrocortisone, 50 μg ml-1 ascorbic acid, 5 ng ml-1 VEGF and 100 ng ml-1 IL-6, 4 μg ml-1 heparin, and 5% fetal calf serum in 10 ng·ml-1 and fibronectin and 5% Matrigel as scaffold and incubated in 5% CO2 at 37° C. for different intervals of time.
as §2

pancreas organoids = assay: Celltiter-Glo viability of drug treated pancreas organoids; type: cell-based, human; conditions: 72 hours treatment
Protocol: (§4) FIGS. 10A-10B: (10A) Representative immunofluorescence and brightfield images of human pancreas tumor avatar composed of Huvec endothelial cells, Org and TASCs mix at a 1:1:1, 1:4:1 or 4:1:1 ratio, respectively cultivated in a Matrigel (5%) and fibronectin scaffold (10 ng/ml), during 6 days. Org were stained with Cell Vue Claret far red fluorochrome (purple cells). Cell viability was assessed by Calcein (green)/PI (red) staining and images were acquired with Operetta Imager at 5× magnification. (10B) Line graphs showing relative light unit percentage (RLU %) of everolimus or FOLFOX treated pancreas tumor avatars and organoids as compared with their respective vehicle controls, after the same day of drug or vehicle exposure, (RLU %=RLUtreatment*100)/RLUveh). Tumor avatars were cultured for 3 days, treated with the specified drugs for other 72 hours and viability determined by Celltiter-Glo assay.
(§5) Next, the inventors aimed to examine a tumor avatar model, composed of pancreas tumor epithelial cells, TASCs and Huvec cells, cultured in the presence of a Matrigel and fibronectin scaffold. Huvec, TASCs and […] organoid-derived tumor epithelial cells clusters (5-15 cells/cluster) were seeded at different ratios (1:1:1, 1:4:4 or 4:1:4 respectively) and cultured for 6 days. Tumor cells, labelled with CellVue Claret far red fluorochrome localized in the interior of the tumor avatar.

[2] = system: human pancreas tumor avatar; assay: Celltiter-Glo viability of drug treated pancreas tumor avatars; type: cell-based; conditions: pancreas tumor avatars (Huvec, TASCs, Org), cultured 3 days, treated 72 hours
Protocol: as §4, §5

[3] = system: HUVEC:FM-2:ORG co-cultures; assay: Drug cytotoxicity, CellTiter-Glo cell viability, co-cultures containing Huvec cells; type: cell-based, human; conditions: paclitaxel 5 μM, 72 hours
Protocol: Organoid-stroma cells co-culture: Initially, organoids were mechanically dissociated into smaller fragments through pipetting, followed by enzymatic digestion into single cells using dispase II at 37° C. for 20 minutes. Concurrently, stroma cells cultured in FM-2, ECM, and MSCM, as well as Huvec cells cultured in ECM, were harvested at 80% confluency in the flask and dissociated using accutase. In certain experiments, after cells dissociation, each cell population was stained with a vital dye before their co-culture. Cells cultured in ECM and Huvec cell lines were stained blue using the CellTrace Violet Dye Proliferation Kit. […] Imaging was performed at 10× magnification using an Olympus Confocal Microscope. Subsequently, dissociated cells were mixed in 35 ul of co-culture medium, at ratios of 1:1:1, 1:4:1, 4:1:1 and 1:1:4 of Huvec or cells cultured in ECM, cells cultured in FM2 and organoids respectively. […]
as §3

[4] = system: patient 1 (gastrointestinal sarcoma) and patient 2 (gastric adenocarcinoma); assay: Administration to the patients; type: in vivo, human; conditions: both patients
[5] = system: human gastric tumor avatars in the presence of lymphocytes; assay: Cell-Titer Glo viability of gastric tumor avatars with peripheral blood lymphocytes; type: cell-based; conditions: avatars of patient 1 and patient 2 with autologous lymphocytes, various concentrations, 72 hours
From the text: FIGS. 12A-12F: (12A) Representative brightfield images of human gastric tumor avatars from a patient with gastrointestinal sarcoma (patient 1) and a second patient (patient 2) with gastric adenocarcinoma, composed of organoids and stroma cells. Cells were dissociated from gastric tissue and cultured in a Matrigel dome in an adherent plate in tumor avatar medium from day 0. After 7 days of culture, organoids remain in the dome and stroma cells and metastatic tumor cells invaded the tissue culture plate outside the dome. […] (12B) Representative brightfield images of defrosted human gastric tumor avatars from defrosted tumor avatars. The tumor avatars were sub-cultured in a Matrigel dome using an adherent plate in the presence of tumor avatar medium from day 3 to day 13. […] (12C-12D). Representative brightfield images of human gastric tumor avatars from a patient with gastrointestinal sarcoma (patient 1) and a second patient (patient 2) with gastric adenocarcinoma, composed of organoids and stroma cells. […] Cell viability was detected after 72 hours of treatment using Cell-Titer Glo assay.
Lymphocytes were isolated from the peripheral blood of patient 1 and patient 2. […] Pembrolizumab was added at various concentrations to the tumor avatars and cell viability was monitored for 72 hours after treatment using the Cell-Titer Glo assay.

CN(C)C/C=C/C(=O)Nc1cc2c(Nc3ccc(F)c(Cl)c3)ncnc2cc1O[C@H]1CCOC1 [afatinib]
cell death (gastric cancer organoids; organoids, 72 hours): approximately 50%

CNC(=O)c1ccc(-c2cnc3ncc(Cc4ccc5ncccc5c4)n3n2)cc1F [capmatinib]
effect on viability (stroma cell monocultures): decreased viability
effect on viability (gastric cancer organoids; organoids): neither the organoids nor the co-culture showed significant response
effect on viability [1]: neither the organoids nor the co-culture showed significant response

C[C@@H](Oc1cc(-c2cnn(C3CCNCC3)c2)cnc1N)c1c(Cl)ccc(F)c1Cl [crizotinib]
cell death (gastric cancer organoids; organoids, 72 hours): more than 50%
cell death ([1]; stroma cells-organoid co-cultures, crizotinib 1 μM, 72 hours): more than 50%

CO[C@H]1C[C@@H]2CC[C@@H](C)[C@@](O)(O2)C(=O)C(=O)N2CCCC[C@H]2C(=O)O[C@H]([C@H](C)C[C@@H]2CC[C@@H](OCCO)[C@H](OC)C2)CC(=O)[C@H](C)/C=C(\C)[C@@H](O)[C@@H](OC)C(=O)[C@H](C)C[C@H](C)/C=C/C=C/C=C/1C [everolimus]
effect of treatment on viability (RLU %) (pancreas organoids): neither the organoids nor the tumor avatar models were affected
effect of treatment on viability (RLU %) [2]: neither the organoids nor the tumor avatar models were affected

COc1cc2ncnc(Nc3ccc(F)c(Cl)c3)c2cc1OCCCN1CCOCC1 [gefitinib]
effect on viability (gastric cancer organoids; organoids): neither the organoids nor the co-culture showed significant response
effect on viability [1]: neither the organoids nor the co-culture showed significant response

Cc1ccc(NC(=O)c2ccc(CN3CCN(C)CC3)cc2)cc1Nc1nccc(-c2cccnc2)n1 [imatinib]
effect on viability (stroma cell monocultures): decreased viability
effect on viability (gastric cancer organoids; organoids): neither the organoids nor the co-culture showed significant response
effect on viability [1]: neither the organoids nor the co-culture showed significant response

C=CC(=O)Nc1cc(Nc2nccc(-c3cn(C)c4ccccc34)n2)c(OC)cc1N(C)CCN(C)C [osimertinib]
cell death (gastric cancer organoids; organoids, 72 hours): approximately 50%
effect on viability [1]: resistant

CC(=O)O[C@H]1C(=O)[C@@]2(C)[C@H]([C@H](OC(=O)c3ccccc3)[C@]3(O)C[C@H](OC(=O)[C@H](O)[C@@H](NC(=O)c4ccccc4)c4ccccc4)C(C)=C1C3(C)C)[C@]1(OC(C)=O)CO[C@@H]1C[C@@H]2O [paclitaxel]
cytotoxicity at 5 µM (gastric cancer organoids; Homo sapiens, 72 h, read-out: decrease in cell viability): 53%
size and integrity in bright field images (gastric cancer organoids; organoids, paclitaxel 5 μM, 72 hours): reduced the size and affected the integrity
cell death ([1]; TECs:TASCs:Org ratio 1:1:4, paclitaxel 5 μM, 72 hours): 22%
cell death ([1]; TECs:TASCs:Org ratios 1:1:1, 4:1:1 and 1:4:1, paclitaxel 5 μM, 72 hours): approximately 40%
size and integrity in bright field images ([1]; co-cultures, paclitaxel 5 μM, 72 hours): reduced the size and affected the integrity
cell death [3]: approximately 10%

Pembrolizumab: Pembrolizumab immunotherapy
patient response [4]: both respond
effectiveness (cell viability) [5]: effective
